Source: PubChem BioAssay (NCI)
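How tested: cells in 96-well plates exposed to compound for 48 hours at five concentrations. At the GI50, growth is halved. TGI is the concentration that stops growth completely.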

Columns and labels:
Test in all cases: NCI anticancer screen, dose series, 48 h
[1] = test system: 786-0 renal
[2] = test system: A498 renal
[3] = test system: A549 NSCLC
[4] = test system: ACHN renal
[5] = test system: BT-549 breast
[6] = test system: CAKI-1 renal
[7] = test system: CCRF-CEM leukemia
[8] = test system: COLO 205 colon
[9] = test system: DU-145 prostate
[10] = test system: EKVX NSCLC
[11] = test system: HCC-2998 colon
[12] = test system: HCT-116 colon
[13] = test system: HCT-15 colon
[14] = test system: HL-60(TB) leukemia
[15] = test system: HOP-62 NSCLC
[16] = test system: HOP-92 NSCLC
[17] = test system: HS 578T breast
[18] = test system: HT29 colon
[19] = test system: IGROV1 ovarian
[20] = test system: K-562 leukemia
[21] = test system: KM12 colon
[22] = test system: LOX IMVI melanoma
[23] = test system: M14 melanoma
[24] = test system: MALME-3M melanoma
[25] = test system: MCF7 breast
[26] = test system: MDA-MB-231 breast
[27] = test system: MDA-MB-435
[28] = test system: MOLT-4 leukemia
[29] = test system: NCI-H226 lung
[30] = test system: NCI-H23 lung
[31] = test system: NCI-H460 lung
[32] = test system: NCI-H522 lung
[33] = test system: NCI/ADR-RES ovarian
[34] = test system: OVCAR-3 ovarian
[35] = test system: OVCAR-4 ovarian
[36] = test system: OVCAR-5 ovarian
[37] = test system: OVCAR-8 ovarian
[38] = test system: PC-3 prostate
[39] = test system: RPMI-8226 leukemia
[40] = test system: RXF 393 renal
[41] = test system: SF-268 CNS
[42] = test system: SF-295 CNS
[43] = test system: SF-539 CNS
[44] = test system: SK-MEL-2 melanoma
[45] = test system: SK-MEL-28 melanoma
[46] = test system: SK-MEL-5 melanoma
[47] = test system: SK-OV-3 ovarian
[48] = test system: SN12C renal
[49] = test system: SNB-19 CNS
[50] = test system: SNB-75 CNS
[51] = test system: SW-620 colon
[52] = test system: T-47D breast
[53] = test system: TK-10 renal
[54] = test system: U251 CNS
[55] = test system: UACC-257 melanoma
[56] = test system: UACC-62 melanoma
[57] = test system: UO-31 renal

O=C1/C(=C\c2ccc(F)cc2)CCOc2c1ccc1ccccc21
TGI [1]: 62.5 µM
TGI [2]: > 62.1 µM
TGI [3]: > 70.3 µM
GI50 [4]: 47.9 µM
TGI [4]: > 100 µM
TGI [5]: 77.3 µM
TGI [6]: > 81.6 µM
TGI [7]: 35.9 µM
TGI [8]: > 100 µM
TGI [9]: 98 µM
TGI [10]: > 100 µM
TGI [11]: 17.7 µM
TGI [12]: 10.7 µM
TGI [13]: > 100 µM
TGI [14]: > 72.4 µM
TGI [15]: 63.8 µM
TGI [16]: 71.5 µM
TGI [17]: > 84.9 µM
TGI [18]: > 56.8 µM
GI50 [19]: > 100 µM
TGI [19]: > 100 µM
TGI [20]: > 31.1 µM
TGI [21]: 31.5 µM
GI50 [22]: 13 µM
TGI [22]: 38.4 µM
TGI [23]: 82.7 µM
TGI [24]: 37.7 µM
TGI [25]: 51.9 µM
TGI [26]: > 47.7 µM
TGI [27]: 74.3 µM
TGI [28]: > 47.8 µM
GI50 [29]: 33.6 µM
TGI [29]: > 100 µM
TGI [30]: 39.4 µM
TGI [31]: 97.9 µM
TGI [32]: > 100 µM
TGI [33]: 45.9 µM
TGI [34]: 27.9 µM
TGI [35]: > 100 µM
TGI [36]: 42.3 µM
TGI [37]: 35.2 µM
TGI [38]: > 100 µM
TGI [39]: 9.45 µM
TGI [40]: 49.7 µM
TGI [41]: 74.9 µM
TGI [42]: 70.3 µM
TGI [43]: 48.5 µM
TGI [44]: > 100 µM
TGI [45]: > 71.1 µM
TGI [46]: 47.9 µM
TGI [47]: > 100 µM
TGI [48]: > 89.2 µM
TGI [49]: > 100 µM
TGI [50]: > 66.1 µM
TGI [51]: > 100 µM
TGI [52]: > 100 µM
TGI [53]: 60.7 µM
TGI [54]: > 100 µM
TGI [55]: 54.4 µM
TGI [56]: > 100 µM
TGI [57]: > 100 µM

CC(=O)c1cc2c(c3ccsc13)-c1ccccc1CC2
GI50 [1]: 35.2 µM
TGI [1]: > 100 µM
GI50 [2]: 17.2 µM
TGI [2]: 67.8 µM
GI50 [3]: 35.7 µM
TGI [3]: > 100 µM
GI50 [4]: 45.5 µM
TGI [4]: > 100 µM
GI50 [5]: 37 µM
TGI [5]: > 100 µM
GI50 [6]: 29.4 µM
TGI [6]: > 100 µM
GI50 [7]: 21.7 µM
TGI [7]: 62.1 µM
GI50 [8]: 42 µM
TGI [8]: > 100 µM
GI50 [9]: 23.5 µM
TGI [9]: > 100 µM
GI50 [10]: 6.37 µM
TGI [10]: > 100 µM
GI50 [11]: 8.95 µM
TGI [11]: 27.3 µM
GI50 [12]: 20.3 µM
TGI [12]: > 100 µM
GI50 [13]: 22.3 µM
TGI [13]: > 100 µM
GI50 [14]: 30.8 µM
TGI [14]: > 100 µM
GI50 [15]: 36.4 µM
TGI [15]: > 100 µM
GI50 [16]: 28.9 µM
TGI [16]: > 100 µM
GI50 [17]: 2.17 µM
TGI [17]: 44.6 µM
GI50 [18]: 58.4 µM
TGI [18]: > 100 µM
GI50 [19]: 36 µM
TGI [19]: > 100 µM
GI50 [20]: 14.3 µM
TGI [20]: 90.5 µM
GI50 [21]: 12.5 µM
TGI [21]: 54.9 µM
GI50 [22]: 32.3 µM
TGI [22]: > 100 µM
GI50 [23]: 27.7 µM
TGI [23]: 89.8 µM
GI50 [24]: 15.7 µM
TGI [24]: 55.2 µM
GI50 [25]: 21 µM
TGI [25]: > 100 µM
GI50 [26]: 16.4 µM
TGI [26]: 67.1 µM
GI50 [27]: 4.76 µM
TGI [27]: > 100 µM
GI50 [29]: 38 µM
TGI [29]: > 100 µM
GI50 [30]: 28.1 µM
TGI [30]: 95.6 µM
GI50 [31]: 30.1 µM
TGI [31]: > 100 µM
GI50 [32]: 19.7 µM
TGI [32]: 79.1 µM
GI50 [33]: 16.6 µM
TGI [33]: 44.8 µM
GI50 [34]: 25.4 µM
TGI [34]: > 100 µM
GI50 [35]: > 100 µM
TGI [35]: > 100 µM
GI50 [36]: 39.4 µM
TGI [36]: > 100 µM
GI50 [37]: 53.1 µM
TGI [37]: > 100 µM
GI50 [38]: 27.9 µM
TGI [38]: > 100 µM
GI50 [39]: 25.8 µM
TGI [39]: 75 µM
GI50 [40]: 28.6 µM
TGI [40]: > 100 µM
GI50 [41]: 43.4 µM
TGI [41]: > 100 µM
GI50 [42]: 26.5 µM
TGI [42]: > 100 µM
GI50 [43]: 27.9 µM
TGI [43]: > 100 µM
GI50 [44]: 26.5 µM
TGI [44]: 83 µM
GI50 [45]: > 100 µM
TGI [45]: > 100 µM
GI50 [46]: 12.7 µM
TGI [46]: 35.7 µM
GI50 [47]: > 100 µM
TGI [47]: > 100 µM
GI50 [48]: 34.7 µM
TGI [48]: > 100 µM
GI50 [49]: > 100 µM
TGI [49]: > 100 µM
GI50 [50]: > 100 µM
TGI [50]: > 100 µM
GI50 [51]: 33.7 µM
TGI [51]: > 100 µM
GI50 [52]: > 100 µM
TGI [52]: > 100 µM
GI50 [53]: 25.4 µM
TGI [53]: 83 µM
GI50 [54]: 34.7 µM
TGI [54]: > 100 µM
GI50 [55]: 47.1 µM
TGI [55]: > 100 µM
GI50 [56]: 7.71 µM
TGI [56]: > 100 µM
GI50 [57]: 26.6 µM
TGI [57]: 85.2 µM
